Assay results as given in article PMC6367500, “18β-glycyrrhetyl-3-O-sulfate would be a causative agent of licorice-induced pseudoaldosteronism” (Scientific Reports, 2019).

Key:
[1] = tested on: anti-3MGA-mAb; assay: Competitive ELISA using anti-3MGA-mAb; type: binding; conditions: specificity to 3MGA calibrated to 100%, n = 1
Method: (§1) Figure 5 Dot-blot analysis and ELISA detection range of GL metabolites using anti-3MGA-monoclonal antibody (mAb). GL metabolites (1 µg each) were spotted on a PES membrane, and colored using an anti-3MGA-mAb (A). Competitive ELISA using anti-3MGA-mAb for GL metabolites was performed. Data are represented from a single analysis (n = 1) (B). […] Data are represented as mean ± S.D. (n = 3). Two-way ANOVA indicated a significant difference between GA and 3 (F1,36 = 4441, P < 0.001), concentrations (F8,36 = 315, P < 0.001), and their interactions (F8,36 = 281, P < 0.001). The calibrated line for the absorbance-concentration profile of 3 was calculated by the linear least-squares method, and the regression formula is shown in graph (C).
When the specificity of the mAb to 3MGA was calibrated to 100%, the cross-reactivity for GL, GA, 1, 2, and 3 was 0.23%, 2.2%, 4.8%, 4.0%, and 23%, respectively. […] We confirmed the selectivity of the anti-3MGA-mAb in discriminating between 3 and GA and established the detectable measurement range for 3 in this ELISA system.
3MGA-HSA (1 µg/ml in 50 mM carbonate buffer, pH 9.6) was added into a 96-well plate (Nagel Nunc, Penfield, NY, USA) (100 µl in a well) and incubated at 37 °C for 1 h. After the removal of 3MGA-HSA, the wells were washed three times with T-PBS (200 µl in a well). The wells were incubated with 300 µl in a well of 5% skim milk at 4 °C overnight. After the wells had been washed with T-PBS three times, the sample solution diluted with Can Get Signal® Solution 1 (Toyobo Co., Ltd., Osaka, Japan) (50 µl in a well) and anti-3MGA-mAb (1:4,000 dilution with Can Get Signal® Solution 1) (50 µl in a well) were added to the wells, and the plate was incubated at 37 °C for 1 h. After the wells had been washed with T-PBS three times, HRP-labeled goat anti-mouse IgG (Fc specific) antibody (Sigma, 1:20,000 dilution with Can Get Signal® Solution 2) was added into the wells (100 µl in a well) and the plate was incubated at 37 °C for 1 h. Next, the wells were washed with T-PBS three times and the substrate solution (3,3′,5,5′-tetramethylbensidine, TMB solution; Fujifilm Wako Pure Chemical Corporation, Osaka, Japan) was added to the wells (100 µl in a well), followed by incubation at room temperature for 5 min. Then, the stop solution (0.5 M sulfuric acid) was added to the wells (100 µl in a well) and the optical density was measured at 450 nm/630 nm.

[2] = tested on: anti-3MGA-mAb; assay: Dot-blot analysis using anti-3MGA-mAb; type: binding; conditions: 1 µg spotted on PES membrane, imaging analysis
Method: We confirmed the cross-reactivity of anti-3MGA-mAb against these GL metabolites. GL, GA, 3MGA, and compounds 1, 2, and 3 (1 µg each) were spotted on a polyethersulfone (PES) membrane, fixed onto the membrane, and colored using an anti-3MGA-mAb (Fig. 5A). […] Thus, the anti-3MGA-mAb cross-reacted to some extent with other metabolites of GL.
as §1
Anti-3MGA-mAb and 3MGA-human serum albumin (HSA)-conjugate were developed by the same protocols established in our previous studies[22],[23]. GL, GA, 3MGA, 1, 2, and 3 (1 µg each) were spotted on a Mustang^TM E positively charged PES membrane (Pall Co., East Hills, NY, USA). The membrane was then immersed into 0.1 M MES buffer (pH 4.7) containing 2% EDC and 1% NHS, and kept at room temperature for 1 h to activate the carboxyl group. After washing with distilled water, PBS containing 1% bovine serum albumin (BSA) was added to the membrane, which was shaken at room temperature for 2 h for fixation. Next, the membrane was blocked with PBS containing 5% skim milk (Morinaga-milk, Tokyo, Japan) and 0.1% Tween 20 at 4 °C overnight to reduce nonspecific adsorption. After washing twice with PBS containing 0.1% Tween 20 (T-PBS) for 5 min, the membrane was incubated with anti-3MGA-mAb and kept at room temperature for 3 h with constant agitation. The membrane was then washed twice with T-PBS for 5 min and treated with 1:500 diluted horseradish peroxidase (HRP)-labeled goat anti-mouse IgG (whole molecule; Sigma, St. Louis, MO, USA) antibody in T-PBS for 1 h with gentle shaking. Finally, the membrane was washed twice with T-PBS and once with PBS, and exposed to 1 mg/ml of freshly prepared 4-chloro-1-naphthol-0.03% H2O2 in PBS for 15 min at room temperature. The reaction was stopped by washing with distilled water, and the immunostained PES membrane was allowed to dry and then photographed. The positively stained areas were measured using Image J 1.46r (http://imageJ.nih.gov/ij).

[3] = Concentrations of GL metabolites in plasma of a patient with pseudoaldosteronism (LC-MS/MS); type: in vivo, human
Excerpt: The patient was a person who had taken a Kampo formula containing licorice for 3 years (1.5 g of licorice for 1 year and 2 months, and 3 g for 1 year and 10 months). On day 0, we found a low plasma potassium level (2.1 mEq/l) and a high creatinine kinase level (364 U/l). Since low plasma renin activity and a low aldosterone level were also found, the patient was diagnosed with pseudoaldosteronism due to licorice. The administration of the Kampo formula was stopped and potassium supplementation of up to 100 mEq/day was started. In the plasma collected on day 0, we detected compound 3 at 8.6 µM, GA at 1.3 µM, and 2 at 87 nM, while 1, GL and 3MGA were not detected. On day 5, the plasma potassium level was still 2.1 mEq/l and potassium supplementation was continued. However, the plasma concentrations of 3 and GA had decreased to 3.6 µM and 0.65 µM, respectively. 2, 1, GL, and 3MGA were not detected. On day 13, the plasma potassium level was increased to 2.8 mEq/l, and the concentrations of 3 and GA were 61 nM and 11 nM, respectively. On day 14, the plasma potassium level was 3.4 mEq/l, and the concentration of 3 was 57 nM; GA was not detected. On day 18, the plasma potassium level had recovered to a normal level (4.9 mEq/l), so potassium supplementation was stopped.
Female SD rats or EHBRs (9-week-old) were anesthetized by an intraperitoneal (i.p.) injection of urethane (1 g/kg) and their jugular veins were exposed. GA suspended in 0.5% CMC was then administered orally (200 mg/kg) to the unconscious rats, and blood samples were collected from the jugular vein; urine samples were collected using a metabolic cage at an appropriate time over a 12-h period. […] Feces were homogenized in phosphate-buffered saline (PBS; 0.15 M, pH 7.2), centrifuged (1.2 × 10^4 g, 10 min), and the supernatants were collected. After 1 week as a washout period, female SD rats were anesthetized by an i.p. injection of urethane (1 g/kg) and their biliary tract was cannulated. GA (0.2 mg/kg) was injected into the jugular vein, and the bile was collected every hour for 4 h. Aliquots (10 µl) of plasma, urine, homogenate of feces, or bile were mixed with 20 µl of subtilisin (0.91 U/ml) and incubated at 37 °C for 30 min, followed by the addition of 70 µl of astragaloside IV solution (1 µg/ml in ethanol containing 0.5% formic acid, used as internal standard), and kept at −20 °C for 30 min. […] The transitions (precursor to daughter) monitored and retention times were as follows: ESI(+) 743.4 to 567.5 m/z for compound 1 (5.5 min), ESI(−) 565.5 to 96.5 m/z for 2 (6.2 min), ESI(−) 549.5 to 96.5 m/z for 3 (8.1 min), ESI(+) 647.6 to 453.6 m/z for 3MGA (9.2 min), ESI(+) 471.3 to 91.0 m/z for GA (8.8 min), ESI(+) 823.5 to 453.6 m/z for GL (10.8 min), and ESI(+) 785.4 to 143.0 m/z for astragaloside IV (3.0 min). Linear regressions over the concentration range of 32 nM to 20 µM for each compound were examined using the peak-area ratio of the compounds to their internal standards and the least-squares method (r^2 > 0.98).
The patient was a person. They provided written informed consent to the use of their blood and urine samples for this study, which was approved by the Independent Ethics Committee of Kameda General Hospital, in accordance with the Declaration of Helsinki. Their anamnesis was follows: hypertension, systemic lupus erythematosus, and antiphospholipid antibody syndrome (for 15 years), necrotic pulmonary aspergillosis (6 years ago), cerebral infarction (14 and 4 years ago, two times), and stomach cancer (3 years ago). After the operation for stomach cancer, the patient had been treated with Kracie Juzentaihoto Extract Granules for Ethical Use (Kracie Pharmaceuticals., Tokyo, Japan). […]

CC1(C)[C@@H](O[C@H]2O[C@H](C(=O)O)[C@@H](O)[C@H](O)[C@H]2O[C@@H]2O[C@H](C(=O)O)[C@@H](O)[C@H](O)[C@H]2O)CC[C@]2(C)[C@H]3C(=O)C=C4[C@@H]5C[C@@](C)(C(=O)O)CC[C@]5(C)CC[C@@]4(C)[C@]3(C)CC[C@@H]12 [GL, glycyrrhizin, reference compound]
cross-reactivity of anti-3MGA-mAb [1]: 0.23% | area of positive staining in dot-blot [2]: not detectable | plasma concentration, day 0 ([3]; patient with licorice-induced pseudoaldosteronism, day 0): not detected | plasma concentration, day 5 ([3]; patient, 5 days after stopping the Kampo formula): not detected
